# Several values for one entry are separate records, joined by “and”; a condition that tells them apart may be missing. Equal entries are not always repeated. Entries after “also recorded” stand apart in the source; their conditions may differ. Where two headings read alike, the source gives them in different places.
# How the values were obtained:
# [1] = First-in-human SAD and MAD study, pharmacokinetics; type: in vivo
# Description: A first-in-human study was conducted to evaluate the safety, tolerability and pharmacokinetics (PK) of single and multiple ascending doses (SAD and MAD) of oral Compound A.
# In the SAD Phase, 32 healthy volunteers were randomized (3:1) to Compound A (5, 15, 20, 25 or 30 mg) or placebo. The study featured an adaptive design. A crossover food effect cohort (N=10) was also completed with single doses of 20 mg. A sub-set of 8 male subjects were also assessed with Transcranial Magnetic Stimulation (TMS) for effects on cortical excitability (see Examples 4 and 5).
# Repeat doses of Compound A (15 mg QD) were evaluated in a fasted and fed state over 7 and 10 days, respectively. Repeat doses of Compound A (25 mg QD) were also evaluated in a fed state over 10 days.
# Compound A was formulated as an immediate release capsule. Serial plasma PK samples were collected for all cohorts. Safety evaluations throughout the study included adverse event (AE) monitoring, clinical laboratory tests, vital signs, ECGs, physical examinations and Columbia-Suicide Severity Rating Scale.
# [2] = system: corticospinal excitability; assay: TMS crossover study, TMS-EMG active motor threshold (AMT); type: in vivo, human; conditions: for Active Motor Threshold, post-dose change from baseline: individual subjects; for Active Motor Threshold, post-dose change from baseline / Active Motor Threshold, post-dose change from baseline (Mean): single 20 mg dose; for Active Motor Threshold, post-dose change from baseline (Mean): mean of subjects
# Description: RMT and AMT values are reported as percentages of maximum stimulator output (% MSO). Drug-induced modulation of TMS-EMG parameters were evaluated over the 3 timepoints (2, 4, and 6 h) and for the timepoint with the highest drug exposure. AMT was recorded while subjects squeezed a manometer at 20% of each individual's maximum contraction force. […] AMT could not be registered for Subjects 912 and 940 at 2 hours after Compound A and placebo intake, respectively.
# [3] = system: GABA-A receptor mediated intracortical inhibition; assay: TMS crossover study, short-interval intracortical inhibition (SICI); type: in vivo, human; conditions: for Short Intracortical Inhibition (Mean Conditioned MEP/Mean Unconditioned MEP): individual subjects; for Short Intracortical Inhibition (Mean Conditioned MEP/Mean Unconditioned MEP) / Short Intracortical Inhibition (Mean Conditioned MEP/Mean Unconditioned MEP), Mean: ISI 2 ms; for Short Intracortical Inhibition (Mean Conditioned MEP/Mean Unconditioned MEP), Mean: mean of subjects
# Description: Short-interval intracortical inhibition (SICI) was measured using 15 conditioning-test stimuli pairs given in a random order at an interstimulus interval (ISI) of 2 ms. The conditioning stimulus was set at 80% of AMT and the suprathreshold stimulus 120% RMT. The calculation of SICI utilized custom scripts to measure the amplitudes of conditioned and unconditioned motor evoked potentials (MEPs) and to express SICI as the ratio of mean conditioned MEPs over mean unconditioned MEPs.
# [4] = human, plasma, oral, 20 mg, SAD, 20 mg fasted, N=6, Mean ± SD
# [5] = human, plasma, oral, 25 mg, MAD, 25 mg QD Fed, Day 1, N=6, mean
# [6] = human, plasma, oral, 25 mg, MAD, 25 mg QD Fed, Day 10, N=6, mean
# [7] = human, plasma, oral, 25 mg, SAD, 25 mg fed standard breakfast, N=6, Mean ± SD
# [8] = human, plasma, oral, 30 mg, SAD, 30 mg fasted, N=6, Mean ± SD
compound,measurement,setting,value
"Cc1cc(N2CCc3cc(F)ccc3C2)cc(C)c1NC(=O)CC(C)(C)C [Compound A, N-[4-(6-fluoro-3,4-dihydro-1H-isoquinolin-2-yl)-2,6-dimethylphenyl]-3,3-dimethylbutanamide]",Cmax,[1]; [4],31.5 ± 21.1 ng/mL
same,Tmax,[1]; [4],3.69 ± 2.05 h
same,AUC(0-t),"[1]; human, plasma, oral, 20 mg, SAD, 20 mg fasted, N=6, Mean ± SD, read-out: AUC0-24",376 ± 220 ng·h/mL
same,AUC(0-t),"[1]; human, plasma, oral, 20 mg, SAD, 20 mg fasted, N=6, tLast 72 h, Mean ± SD, read-out: AUC0-t",709 ± 337 ng·h/mL
same,Cmax,[1]; [5],49.6 ng/mL
same,Tmax,[1]; [5],4.38 h
same,AUC(0-t),"[1]; human, plasma, oral, 25 mg, MAD, 25 mg QD Fed, Day 1, N=6, mean, read-out: AUC0-24",592 ng·h/mL
same,Cmax,[1]; [6],96.7 ng/mL
same,Tmax,[1]; [6],4.99 h
same,AUC(0-t),"[1]; human, plasma, oral, 25 mg, MAD, 25 mg QD Fed, Day 10, N=6, mean, read-out: AUC0-24",1720 ng·h/mL
same,AUC(0-t),"[1]; human, plasma, oral, 25 mg, MAD, 25 mg QD Fed, Day 10, N=6, mean, read-out: AUC0-t",8010 ng·h/mL
same,Cmax,[1]; [7],45.8 ± 14.3 ng/mL
same,Tmax,[1]; [7],4.51 ± 1.22 h
same,AUC(0-t),"[1]; human, plasma, oral, 25 mg, SAD, 25 mg fed standard breakfast, N=6, Mean ± SD, read-out: AUC0-24",482 ± 130 ng·h/mL
same,AUC(0-t),"[1]; human, plasma, oral, 25 mg, SAD, 25 mg fed, N=6, tLast 146 h, Mean ± SD, read-out: AUC0-t",1470 ± 270 ng·h/mL
same,Cmax,[1]; [8],35.5 ± 33.5 ng/mL
same,Tmax,[1]; [8],3.17 ± 1.48 h
same,AUC(0-t),"[1]; human, plasma, oral, 30 mg, SAD, 30 mg fasted, N=6, Mean ± SD, read-out: AUC0-24",369 ± 219 ng·h/mL
same,AUC(0-t),"[1]; human, plasma, oral, 30 mg, SAD, 30 mg fasted, N=6, tLast 72 h, Mean ± SD, read-out: AUC0-t",837 ± 280 ng·h/mL
same,half-life at 10 days,"[1]; human, plasma, oral, MAD, 15 mg Fed, Day 10, N=6, mean",239 h
same,half-life at 7 days,"[1]; human, plasma, oral, MAD, 15 mg QD Fasted, Day 7, N=6, mean",167 h
same,half-life at 10 days,"[1]; human, plasma, oral, MAD, 25 mg QD Fed, Day 10, N=6, mean",218 h
same,half-life,"[1]; human, plasma, oral, SAD, 5 mg fasted, N=3, Mean ± SD, read-out: T1/2 (converted)",49.2 ± 31.1 h
same,half-life,"[1]; human, plasma, oral, SAD, 15 mg fasted, N=3, Mean ± SD, read-out: T1/2 (converted)",41.9 ± 31.1 h
same,half-life,"[1]; human, plasma, oral, SAD, 20 mg fasted, N=6, Mean ± SD, read-out: T1/2 (converted)",48.9 ± 14.7 h
same,half-life,"[1]; human, plasma, oral, SAD, 25 mg fed standard breakfast, N=6, Mean ± SD, read-out: T1/2 (converted)",97.2 ± 18 h
same,half-life,"[1]; human, plasma, oral, SAD, 30 mg fasted, N=6, Mean ± SD, read-out: T1/2 (converted)",63.4 ± 28.2 h
same,half-life,"[1]; human, plasma, oral, immediate release formulation, read-out: effective half-life",> 24 h
same,dose proportionality of exposure,"[1]; multiple doses, fed state",exposure increased in proportion to dose
same,apparent steady state achieved,"[1]; multiple doses, 90% CI of successive day's exposure ratio within 0.8-1.25",6 to 9 days
same,peak to trough ratio,[1]; once a day dosing,low
same,attainment of steady state,"[1]; once per day dosing, without titration",1 week
same,AMT,[2]; 20 mg single dose,increased
same,change from baseline in AMT vs placebo,"[2]; 20 mg, 6 h post-dose, p<0.01",significantly different from placebo
same,"Active Motor Threshold, post-dose change from baseline",[2]; 2 h post-dose,2 % MSO (3×) and 4 % MSO and 0 % MSO (9×) and 3 % MSO and 1 % MSO (5×)
same,"Active Motor Threshold, post-dose change from baseline",[2]; 4 h post-dose,2 % MSO (4×) and 4 % MSO and 0 % MSO (9×) and 3 % MSO (4×) and 1 % MSO (2×)
same,"Active Motor Threshold, post-dose change from baseline",[2]; 6 h post-dose,0 % MSO (4×) and 6 % MSO and 1 % MSO (3×) and 2 % MSO (2×) and 3 % MSO (5×) and 4 % MSO
same,"Active Motor Threshold, post-dose change from baseline (Mean)",[2]; 2 h post-dose,0.9 % MSO
same,"Active Motor Threshold, post-dose change from baseline (Mean)",[2]; 4 h post-dose,1.3 % MSO
same,"Active Motor Threshold, post-dose change from baseline (Mean)",[2]; 6 h post-dose,2.0 % MSO
same,SICI (mean conditioned MEPs/mean unconditioned MEPs),[3]; 20 mg single dose,no significant findings; also recorded: lack of an effect on SICI
same,Short Intracortical Inhibition (Mean Conditioned MEP/Mean Unconditioned MEP),[3]; 2 h post-dose,0.71 and 0.72 and 1.29 and 0.91 (2×) and 0.94 and 1.11 and 0.96 and 1.18 and 2.68 and 0.92 (2×) and 0.97 and 1.12 and 1.31 and 1.09 and 1.03 and 0.85 and 0.67
same,Short Intracortical Inhibition (Mean Conditioned MEP/Mean Unconditioned MEP),[3]; 4 h post-dose,1.03 (2×) and 0.93 and 0.54 and 1.20 and 1.68 and 1.64 and 0.86 and 0.61 and 1.01 and 1.53 and 1.04 and 1.17 and 0.89 and 1.27 and 0.87 and 0.75 and 1.07 and 1.02
same,"Short Intracortical Inhibition (Mean Conditioned MEP/Mean Unconditioned MEP), Mean",[3]; 2 h post-dose,1.07
same,"Short Intracortical Inhibition (Mean Conditioned MEP/Mean Unconditioned MEP), Mean",[3]; 4 h post-dose,1.06

# From patent US11135214B2, “Methods for enhancing the bio availability and exposure of a voltage-gated potassium channel opener” (priority 2018, dated 2021)
